Measurements taken from US10689345B2, “1-cyano-pyrrolidine compounds as USP30 inhibitors” (Mission Therapeutics Limited, priority 2015, dated 2020).

target: USP30 (Homo sapiens (Human), UniProt Q70CQ3); experiment: USP30 biochemical FP (fluorescence polarisation) IC50 assay; settings: USP30 biochemical FP or FI IC50 assay (table does not say which per compound); read-out: IC50 range
Procedure: In Vitro USP30 FP Inhibition Assay
USP30 Biochemical IC50 Assay
Dilution plates were prepared at 21 times the final concentration (2100 μM for a final concentration of 100 μM) in 50% DMSO in a 96-well polypropylene V-bottom plate (Greiner #651201). A typical 8-point dilution series would be 100, 30, 10, 3, 1, 0.3, 0.1, 0.03 μM final. Reactions were performed in duplicate in black 384 well plates (small volume, Greiner 784076) in a final reaction volume of 21 μl. Either 1 μl of 50% DMSO or diluted compound was added to the plate. USP30 was diluted in reaction buffer (40 mM Tris, pH 7.5, 0.005% Tween 20, 0.5 mg/ml BSA, 5 mM beta-mercaptoethanol) to the equivalent of 0.05 μl/well and 10 μl of diluted USP30 was added to the compound. Enzyme and compound were incubated for 30 min at room temp. Reactions were initiated by the addition of 50 nM of TAMRA labelled peptide linked to ubiquitin via an iso-peptide bond as fluorescence polarisation substrate. Reactions were read immediately after addition of substrate and following a 2 hr incubation at room temperature. Readings were performed on a Pherastar Plus (BMG Labtech). λ Excitation 540 nm; λ Emission 590 nm.

Sequence of USP30 (Q70CQ3 57-517): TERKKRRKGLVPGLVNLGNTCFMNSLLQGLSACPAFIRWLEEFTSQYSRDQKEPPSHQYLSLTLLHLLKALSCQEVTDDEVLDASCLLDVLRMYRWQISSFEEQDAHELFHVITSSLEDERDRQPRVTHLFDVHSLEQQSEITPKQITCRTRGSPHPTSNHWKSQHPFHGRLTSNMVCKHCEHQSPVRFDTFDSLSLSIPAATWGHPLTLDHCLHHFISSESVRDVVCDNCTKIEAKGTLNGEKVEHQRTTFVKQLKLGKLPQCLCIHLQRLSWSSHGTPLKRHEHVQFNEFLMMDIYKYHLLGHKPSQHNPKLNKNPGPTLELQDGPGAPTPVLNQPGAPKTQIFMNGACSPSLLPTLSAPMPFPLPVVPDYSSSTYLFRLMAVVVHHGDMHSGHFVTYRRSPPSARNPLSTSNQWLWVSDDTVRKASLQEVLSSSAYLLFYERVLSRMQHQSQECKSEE

Compound	IC50 [µM]
N#CN1C[C@H](NC(=O)c2ccc(-c3ccccc3)cc2)[C@@H](F)C1 (relative stereo) [Example 176, N-((trans)-1-cyano-4-fluoropyrrolidin-3-yl)-[1,1′-biphenyl]-4-carboxamide]	0.1 to 1
Cn1cc(-c2ccc(C(=O)N[C@@H]3CCN(C#N)C3)c(F)c2F)cn1 [Example 131, (R)-N-(1-cyanopyrrolidin-3-yl)-2,3-difluoro-4-(1-methyl-1H-pyrazol-4-yl)benzamide]	< 0.1
N#CN1CC[C@@H](NC(=O)c2cc(F)c(N3CCOCC3)cc2F)C1 [Example 144, (R)-N-(1-cyanopyrrolidin-3-yl)-2,5-difluoro-4-morpholinobenzamide]	0.1 to 1
Cn1cc(-c2ccc3nc(C(=O)N[C@@H]4CCN(C#N)C4)c(F)n3c2)cn1 [Example 168, (R)-N-(1-cyanopyrrolidin-3-yl)-3-fluoro-6-(1-methyl-1H-pyrazol-4-yl)imidazo [1,2-a]pyridine-2-carboxamide]	0.1 to 1
N#CN1CC[C@@H](NC(=O)c2cc(-c3ccc(Cl)cc3)no2)C1 [Example 218, (R)-3-(4-chlorophenyl)-N-(1-cyanopyrrolidin-3-yl)isoxazole-5-carboxamide]	< 0.1
N#CN1CCC(NC(=O)Nc2ccc(-c3ccccc3)cc2)C1 (stereo not drawn) [Example 254, 1-([1,1′-biphenyl]-4-yl)-3-(1-cyanopyrrolidin-3-yl)urea]	< 0.1
Cc1noc(C)c1-c1ccc2cc(C(=O)N(C)[C@@H]3CCN(C#N)C3)[nH]c2c1 [Example 262, (R)-N-(1-cyanopyrrolidin-3-yl)-6-(3,5-dimethylisoxazol-4-yl)-N-methyl-1H-indole-2-carboxamide]	< 0.1
(R)-N-(1-cyanopyrrolidin- 3-yl)-2-fluoro-3-(1-methyl- 1H-pyrazol-yl)benzamide [Example 104]	0.1 to 1
N-((R)-1-cyanopyrrolidin- 3-yl)-((2S,6R)-2,6- dimethylmorpholino)-5- fluoroisonicotinamide [Example 140]	0.1 to 1
